The values that follow come from ChEMBL document CHEMBL1201862, “PubChem BioAssay data set” (2004).

Structures are written as SMILES.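 Following 48 hours of exposure in 96-well plates, responses at five concentrations were used to interpolate endpoints linearly. The concentration for 50% growth inhibition is given as GI50.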 Calls of active or inactive are those of the source. Rule as the data show it: active = GI50 up to about 1.1 µM and inactive = higher.

Among the test systems are KM12; SF-268; SW-620; SNB-75; SK-OV-3; NCI/ADR-RES; OVCAR-5; LOX IMVI; Hs-578T; DU-145; IGROV-1; NCI-H522; SNB-19; OVCAR-3; CAKI-1; RPMI-8226; HCT-15; SK-MEL-5; K562; HOP-92.
What all share (assay): NCI tumour cell line growth inhibition, 48 h

On to `N=C(N)NNC(=O)C(=O)O`, for which the GI50 in the experiment with KM12 is > 100 µM (inactive); in the experiment with SF-268 it was > 100 µM (inactive); in the experiment with SW-620, > 100 µM (inactive); in the experiment on SNB-75, > 100 µM (inactive); with SK-OV-3, 55.1 µM (inactive); in the experiment on NCI/ADR-RES it was > 100 µM (inactive). For the same compound, the GI50 with OVCAR-5, in the experiment on LOX IMVI, with Hs-578T, with DU-145, in the experiment on IGROV-1 and in the experiment with NCI-H522 was > 100 µM (inactive) each time. Also, the GI50 with SNB-19 was > 100 µM (inactive); in the experiment with OVCAR-3, > 100 µM (inactive); in the experiment with CAKI-1, > 100 µM (inactive); with RPMI-8226, > 100 µM (inactive); with HCT-15 it was greater than 100 µM; in the experiment with SK-MEL-5, > 100 µM (inactive). In the experiment with K562, the GI50 is > 100 µM (inactive).
Take `COc1ccccc1NC(=S)Nc1cc(C)ccn1`: the GI50 was > 100 µM (inactive) in the experiment with KM12; 91 µM (inactive) with SF-268; > 100 µM (inactive) with SW-620; > 100 µM (inactive) in the experiment with SNB-75; > 100 µM (inactive) with SK-OV-3; > 100 µM (inactive) in the experiment on NCI/ADR-RES. For the same compound, the GI50 in the experiment on OVCAR-5 was > 100 µM (inactive); in the experiment on LOX IMVI, > 100 µM (inactive); with Hs-578T, > 100 µM (inactive); in the experiment with DU-145, > 100 µM (inactive); in the experiment with IGROV-1 it was 74 µM (inactive); in the experiment with NCI-H522, > 100 µM (inactive). In addition, the GI50 in the experiment on SNB-19 is > 100 µM (inactive); with OVCAR-3, > 100 µM (inactive); in the experiment with CAKI-1 it was > 100 µM (inactive); with RPMI-8226, > 100 µM (inactive); in the experiment on HCT-15, greater than 100 µM; with SK-MEL-5, > 100 µM (inactive). The GI50 with K562 is > 100 µM (inactive).
In the case of `O=C(O)c1ccn(-c2cccc(-n3ccc(C(=O)O)n3)n2)n1`, the GI50 with KM12, in the experiment with SF-268, with SW-620, in the experiment with SNB-75, in the experiment on SK-OV-3 and in the experiment on NCI/ADR-RES was > 100 µM (inactive) in each case. Further, the GI50 with OVCAR-5, with LOX IMVI, in the experiment with Hs-578T, with DU-145, in the experiment on IGROV-1 and in the experiment with NCI-H522 was > 100 µM (inactive) throughout. Also, the GI50 in the experiment on SNB-19 was > 100 µM (inactive); in the experiment on OVCAR-3, > 100 µM (inactive); in the experiment with CAKI-1 it was > 100 µM (inactive); in the experiment on RPMI-8226, > 100 µM (inactive); in the experiment on HCT-15 it was greater than 100 µM; with SK-MEL-5 it was > 100 µM (inactive). Besides, in the experiment with K562, the GI50 was > 100 µM (inactive).
Consider `CC1(C)C(=O)/C=C\C(=O)C(C)(C)C(=O)/C=C\C(=O)C(C)(C)C2=CC=C(O2)C(C)(C)C(=O)/C=C\C1=O`, for which the GI50 is 12.7 µM (inactive) in the experiment with KM12; 16.6 µM (inactive) with SF-268; 1.8 µM (inactive) in the experiment with HOP-92; 1.66 µM (inactive) in the experiment with SW-620; 15.9 µM (inactive) with SK-OV-3; 20.8 µM (inactive) with OVCAR-5. The GI50 is 5.14 µM (inactive) in the experiment on LOX IMVI; 16.9 µM (inactive) with Hs-578T; 17.9 µM (inactive) in the experiment on DU-145; 9.18 µM (inactive) in the experiment on IGROV-1; 1.44 µM (inactive) in the experiment on NCI-H522; 16.7 µM (inactive) in the experiment with SNB-19. Further, the GI50 with OVCAR-3 was 3.27 µM (inactive); in the experiment with CAKI-1 it was 3.84 µM (inactive); in the experiment with RPMI-8226, 0.789 µM (active); in the experiment on HCT-15, 3.7 µM; with SK-MEL-5, 7.85 µM (inactive); in the experiment with K562, 1.63 µM (inactive).
Turning to `Cc1ccc(C(=O)N2CCN(C(=O)c3ccc(C)cc3)c3ccccc32)cc1`, the GI50 is 3.29 µM (inactive) in the experiment with KM12; 6.85 µM (inactive) in the experiment on SF-268; 16.4 µM (inactive) in the experiment on HOP-92; 2.93 µM (inactive) with SW-620; 4.68 µM (inactive) in the experiment on SNB-75; 2.89 µM (inactive) in the experiment on SK-OV-3. The GI50 in the experiment on OVCAR-5 was > 63.7 µM (inactive); in the experiment with LOX IMVI it was 6.44 µM (inactive); in the experiment with Hs-578T it was 2.47 µM (inactive); with DU-145 it was 3.35 µM (inactive); in the experiment with IGROV-1, 4.91 µM (inactive); in the experiment with NCI-H522 it was 1.85 µM (inactive). Moreover, the GI50 with SNB-19 is 5.77 µM (inactive); with OVCAR-3, 2.74 µM (inactive); in the experiment on CAKI-1, 7 µM (inactive); with RPMI-8226, 3.03 µM (inactive); in the experiment on HCT-15, 1.94 µM; in the experiment with SK-MEL-5, 3.15 µM (inactive). In the experiment with K562, the GI50 is 2.55 µM (inactive).
`CC(=O)c1c2c(cc3c1CCC3)CCC2`: the GI50 with KM12, with SF-268, with SW-620, in the experiment on SNB-75, in the experiment with SK-OV-3 and with NCI/ADR-RES was > 100 µM (inactive) each time. The GI50 in the experiment on OVCAR-5 is > 100 µM (inactive); in the experiment with LOX IMVI it was > 100 µM (inactive); in the experiment on Hs-578T it was 76.6 µM (inactive); with DU-145, > 100 µM (inactive); in the experiment with IGROV-1, > 100 µM (inactive); in the experiment with NCI-H522 it was > 100 µM (inactive). In addition, the GI50 with SNB-19 was > 100 µM (inactive); in the experiment on OVCAR-3, > 100 µM (inactive); in the experiment on CAKI-1, > 100 µM (inactive); in the experiment on RPMI-8226, 76 µM (inactive); with HCT-15 it was greater than 100 µM; in the experiment with SK-MEL-5, > 100 µM (inactive). Moreover, the GI50 with K562 is 20.7 µM (inactive).
Turning to `CN(C)c1ccc(/C=c2/c3ccccc3n3c2cc(/C=C/c2ccccc2)[n+]3C)cc1`, the GI50 was 0.167 µM (active) with KM12; 0.114 µM (active) in the experiment on SF-268; 0.0358 µM (active) in the experiment on HOP-92; 0.0916 µM (active) in the experiment with SW-620; 0.033 µM (active) in the experiment on SNB-75; 0.296 µM (active) in the experiment with SK-OV-3. Further, the GI50 in the experiment with OVCAR-5 is 0.502 µM (active); in the experiment on LOX IMVI, 0.12 µM (active); in the experiment with Hs-578T it was 0.0287 µM (active); in the experiment with DU-145, 0.1 µM (active); in the experiment on IGROV-1 it was 0.145 µM (active); in the experiment on NCI-H522 it was 0.108 µM (active). Moreover, the GI50 with SNB-19 is 0.217 µM (active); with OVCAR-3, 0.141 µM (active); with CAKI-1, 1.28 µM (inactive); with RPMI-8226, 0.0208 µM (active); with HCT-15 it was 0.881 µM; in the experiment with SK-MEL-5, 0.144 µM (active). The GI50 with K562 was 0.0951 µM (active).
As to `O=C1CCCC2=C1CC1=C(CCCC1=O)N2c1ccccc1C(=O)O`, the GI50 with KM12, in the experiment with SF-268, with HOP-92, in the experiment with SW-620, in the experiment with SNB-75 and with SK-OV-3 was > 100 µM (inactive) each time. In addition, the GI50 in the experiment with NCI/ADR-RES, in the experiment on OVCAR-5, in the experiment with LOX IMVI, in the experiment on Hs-578T, in the experiment on IGROV-1 and in the experiment on SNB-19 was > 100 µM (inactive) each time. In addition, the GI50 was > 100 µM (inactive) with OVCAR-3; > 100 µM (inactive) in the experiment with CAKI-1; > 100 µM (inactive) in the experiment on RPMI-8226; greater than 100 µM in the experiment with HCT-15; > 100 µM (inactive) with SK-MEL-5; > 100 µM (inactive) in the experiment with K562.
As to `Cc1cccc2c(=O)c3cccc(CC(=O)O)c3oc12`, the GI50 in the experiment on KM12, in the experiment with SF-268, with HOP-92, with SW-620, with SK-OV-3 and in the experiment with NCI/ADR-RES was > 100 µM (inactive) throughout. Moreover, the GI50 in the experiment on LOX IMVI, with Hs-578T, in the experiment with IGROV-1, in the experiment with NCI-H522, in the experiment with SNB-19 and in the experiment with OVCAR-3 was > 100 µM (inactive) each time. Further, the GI50 is > 100 µM (inactive) in the experiment on CAKI-1; > 100 µM (inactive) in the experiment on RPMI-8226; greater than 100 µM in the experiment with HCT-15; > 100 µM (inactive) with SK-MEL-5; > 100 µM (inactive) with K562.
On to `c1ccc2c(c1)OC(N1CCCC1)c1cnc(N3CCCC3)nc1-2` (stereo not given), for which the GI50 with KM12 is 41.3 µM (inactive); with SF-268, 29.4 µM (inactive); with HOP-92, 13.6 µM (inactive); in the experiment on SW-620 it was 36.3 µM (inactive); in the experiment with SNB-75 it was 15.2 µM (inactive); in the experiment on SK-OV-3, 44.1 µM (inactive). Moreover, the GI50 in the experiment on OVCAR-5 is 76 µM (inactive); with LOX IMVI, 45.9 µM (inactive); in the experiment with Hs-578T, 30.5 µM (inactive); in the experiment on DU-145 it was 49.9 µM (inactive); in the experiment with SNB-19, 92.5 µM (inactive); in the experiment on OVCAR-3, 22.9 µM (inactive). Further, the GI50 in the experiment on CAKI-1 is 20.9 µM (inactive); in the experiment with RPMI-8226 it was 20.7 µM (inactive); in the experiment on HCT-15, 29.7 µM; in the experiment with K562, 34.3 µM (inactive).
Consider `Nc1ccc(Nc2cc(O)nc(O)n2)cc1`, for which the GI50 in the experiment with KM12, with SF-268, with SW-620, with SK-OV-3, with NCI/ADR-RES and in the experiment with LOX IMVI was > 100 µM (inactive) each time. Besides, the GI50 in the experiment with Hs-578T, with DU-145, with IGROV-1, with NCI-H522, with SNB-19 and in the experiment on OVCAR-3 was > 100 µM (inactive) each time. For the same compound, the GI50 with CAKI-1 is > 100 µM (inactive); in the experiment on RPMI-8226 it was > 100 µM (inactive); in the experiment with HCT-15, greater than 100 µM; with SK-MEL-5 it was > 100 µM (inactive); in the experiment on K562 it was > 100 µM (inactive).
